Measurements: ChEMBL document CHEMBL1141326, “An HIV RNase H inhibitory 1,3,4,5-tetragalloylapiitol from the African plant Hylodendron gabunensis” (J Nat Prod, 2007)
Activity calls are given as the source filed them. No cut-off for these calls is given here.

What was measured:
[1] = Inhibition of HIV1 RNase H by FRET assay; parameters: species or system Human immunodeficiency virus 1
[2] = Inhibition of HIV2 RNase H by FRET assay; parameters: species or system Human immunodeficiency virus 2
Escherichia coli = test: Inhibition of Escherichia coli RNase H at 10 uM by FRET assay
[3] = Inhibition of human RNase H by FRET assay

IC50 [1]: 240 nM | IC50 [2]: 130 nM | Activity (Escherichia coli): inactive | IC50 [3]: 1500 nM
SMILES: O=C(OC[C@H](OC(=O)c1cc(O)c(O)c(O)c1)C(O)(COC(=O)c1cc(O)c(O)c(O)c1)COC(=O)c1cc(O)c(O)c(O)c1)c1cc(O)c(O)c(O)c1
